Data published in patent US10273267B2, “Beta-hairpin peptidomimetics as selective elastase inhibitors” (POLYPHOR AG, priority 2013, dated 2019).
Where a SMILES comes first, the peptide text is derived from it. [ ]: non-standard residue; d: D form. Oic = O=C(O)[C@@H]1C[C@@H]2CCCC[C@@H]2N1; Gly(octyl) = CCCCCCCC[C@H](N)C(=O)O; N(CH2CH2COOH)Gly = O=C(O)CCNCC(=O)O; hTyr = N[C@@H](CCc1ccc(O)cc1)C(=O)O; Aad = N[C@@H](CCCC(=O)O)C(=O)O; AllylGly = C=CC[C@H](N)C(=O)O; β3hP = O=C(O)C[C@@H]1CCCN1; Dap = NC[C@H](N)C(=O)O

Legend:
Type in all cases: biochemical
[1] = molecular target: T1, human neutrophil elastase (Homo sapiens, UniProt P08246); assay: Inhibition of human neutrophil elastase (hydrolysis of MeOSuc-AAPV-pNA); settings: substrate MeOSuc-AAPV-pNA 0.3 mM, enzyme 10 nM, 37° C., pH 8; read-out: Human neutrophil elastase (hNE) IC50
T1 construct: purchased Serva Electrophoresis, Germany
T1 sequence (P08246 30-267): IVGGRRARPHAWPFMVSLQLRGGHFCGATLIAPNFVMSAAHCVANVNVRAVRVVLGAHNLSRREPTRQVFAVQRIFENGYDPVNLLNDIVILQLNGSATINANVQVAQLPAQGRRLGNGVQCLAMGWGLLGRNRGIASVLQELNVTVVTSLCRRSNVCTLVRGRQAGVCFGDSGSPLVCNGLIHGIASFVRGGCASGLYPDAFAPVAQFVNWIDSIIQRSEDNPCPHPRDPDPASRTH
Outline: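 MeOSuc-AAPV-pNA (0.3 mM) hydrolysis by 10 nM enzyme at 37° C with serially diluted peptides (1% DMSO) in 50 mM Tris pH 8, 300 mM NaCl, 0.01% Tween20. pNA release read at 405 nm over 30 minutes; IC50 from 4-parameter Hill fit.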

[2] = molecular target: T2, porcine pancreatic elastase (Sus scrofa, UniProt P00772); assay: Inhibition of porcine pancreatic elastase (hydrolysis of MeOSuc-AAA-pNA); settings: for hNE/PPE selectivity: ratio of PPE IC50 to hNE IC50; for IC50: substrate MeOSuc-AAA-pNA 1 mM, enzyme 15 nM, 37° C., pH8, read-out: Porcine pancreatic elastase (PPE) IC50
T2 construct: purchased Sigma, USA
T2 sequence (P00772 27-266): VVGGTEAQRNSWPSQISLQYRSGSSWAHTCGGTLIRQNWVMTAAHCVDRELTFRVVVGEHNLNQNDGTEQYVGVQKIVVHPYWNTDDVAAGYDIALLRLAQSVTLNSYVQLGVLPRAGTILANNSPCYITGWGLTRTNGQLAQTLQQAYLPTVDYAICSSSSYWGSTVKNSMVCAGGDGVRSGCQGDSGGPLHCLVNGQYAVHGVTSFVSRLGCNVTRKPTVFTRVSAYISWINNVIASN
Outline: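 Elastase (15 nM) incubated at 37 °C with 1 mM MeOSuc-AAA-pNA and serially diluted peptides (0.5% DMSO) in 50 mM Tris pH 8, 100 mM NaCl, 0.01% Tween20. pNA release read at 405 nm over 30 min; IC50 from 4-parameter Hill fit.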

[3] = molecular target: T3, human proteinase 3 (Homo sapiens, UniProt P24158); assay: Inhibition of human proteinase 3 (substrate Boc-Ala-Ala-Nva-SBzl); settings: for hNE/hPr3 selectivity: ratio of hPr3 IC50 to hNE IC50; for IC50: substrate Boc-Ala-Ala-Nva-SBzl 1 mM, enzyme 10 nM, 37° C., pH7.4, read-out: Human proteinase 3 (hPr3) IC50
T3 construct: purchased Elastin Products Company, USA
T3 sequence (P24158 28-248): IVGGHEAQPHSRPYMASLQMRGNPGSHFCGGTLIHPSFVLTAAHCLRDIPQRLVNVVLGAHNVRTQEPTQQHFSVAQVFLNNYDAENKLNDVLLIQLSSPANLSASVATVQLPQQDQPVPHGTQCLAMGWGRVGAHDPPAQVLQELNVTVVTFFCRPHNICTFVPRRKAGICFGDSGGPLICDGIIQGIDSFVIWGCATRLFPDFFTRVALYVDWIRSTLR
Outline: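 Enzyme at 10 nM incubated at 37°C with 1 mM thiobenzyl ester substrate, 250 μM 4,4′-dithiodipyridine and serial peptide dilutions (0.5% DMSO) in Tris pH 7.4, 150 mM NaCl, 0.01% Tween20. Absorbance at 340 nm followed over 30 min; IC50 from 4-parameter Hill fit.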

| IC50 [1] [nM] | hNE/PPE selectivity [2] | IC50 [2] [nM] | hNE/hPr3 selectivity [3] | IC50 [3] [nM] | SMILES |
| --- | --- | --- | --- | --- | --- |
| 11.8 | 1085 | 12800 | 5305 | 62600 | CCCCCCCC[C@@H]1NC(=O)[C@H](CCC(=O)O)NC(=O)[C@@H](CCCCN)NC(=O)[C@H]([C@@H](C)O)NC(=O)[C@H](CCCCN)NC(=O)[C@H](CCC(N)=O)NC(=O)[C@@H]2CCCN2C(=O)[C@@H]2CCCN2C(=O)[C@H]([C@@H](C)CC)NC(=O)[C@H](CO)NC(=O)[C@H](C)NC(=O)[C@H]([C@@H](C)O)NC(=O)[C@H](CCC(=O)O)NC1=O [Example 29, Cyclo(-OctGly-Glu-Thr-Ala-Ser-Ile-Pro-Pro-Gln-Lys-Thr-^DLys-Glu-)] (cyclo([Gly(octyl)]ETASIPPQKT[dK]E)) |
| 4.8 | >20833 | > 100000 | >20833 | > 100000 | CC[C@H](C)[C@@H]1NC(=O)[C@H](CO)NC(=O)[C@H](C)NC(=O)[C@H]([C@@H](C)O)NC(=O)[C@H](CCc2ccc(O)cc2)NC(=O)[C@H](CCCNC(=N)N)NC(=O)[C@@H]2CCCN2C(=O)[C@H]2CCCN2C(=O)[C@H]([C@@H](C)O)NC(=O)[C@H](CCCCN)NC(=O)[C@H](CCC(N)=O)NC(=O)[C@@H]2C[C@@H]3CCCC[C@@H]3N2C(=O)[C@@H]2CCCN2C1=O [Example 42] (cyclo(R[hTyr]TASIP[Oic]QKT[dP]P)) |
| 2.9 | 30310 | 87900 | 24655 | 71500 | CCCCCCCC[C@@H]1NC(=O)C[C@@H]2CCCN2C(=O)[C@H]2CCCN2C(=O)[C@H]([C@@H](C)O)NC(=O)[C@H](CCCCN)NC(=O)[C@H](CCC(N)=O)NC(=O)[C@@H]2CCCN2C(=O)[C@@H]2CCCN2C(=O)[C@H]([C@@H](C)CC)NC(=O)[C@H](CO)NC(=O)[C@H](C)NC(=O)[C@H]([C@@H](C)O)NC(=O)[C@H](CCC(=O)O)NC1=O [Example 39] (cyclo([Gly(octyl)]ETASIPPQKT[dP][β3hP])) |
| 30.3 | 512 | 15500 | 172 | 5200 | CCCCCCCC[C@@H]1NC(=O)[C@@H]2CCCN2C(=O)[C@H]2CCCN2C(=O)[C@H]([C@@H](C)O)NC(=O)[C@H](CCCCN)NC(=O)[C@H](CCC(N)=O)NC(=O)CN(CCC(=O)O)C(=O)[C@@H]2CCCN2C(=O)[C@H]([C@@H](C)CC)NC(=O)[C@H](CO)NC(=O)[C@H](C)NC(=O)[C@H]([C@@H](C)O)NC(=O)[C@H](CCC(=O)O)NC1=O [Example 34, Cyclo(-OctGly-Glu-Thr-Ala-Ser-Ile-Pro-Nglu-Gln-Lys-Thr-^DPro-Pro-)] (cyclo([Gly(octyl)]ETASIP[N(CH2CH2COOH)Gly]QKT[dP]P)) |
| 2.7 | 148 | 400 | 407 | 1100 | CCCCCCCC[C@@H]1NC(=O)[C@@H]2CCCN2C(=O)[C@H]2CCCN2C(=O)[C@H](CC(N)=O)NC(=O)[C@H](CCCCN)NC(=O)[C@H](CCC(N)=O)NC(=O)[C@@H]2CCCN2C(=O)[C@@H]2CCCN2C(=O)[C@H]([C@@H](C)CC)NC(=O)[C@H](CO)NC(=O)[C@H](C)NC(=O)[C@H]([C@@H](C)O)NC(=O)[C@H](CCc2ccc(O)cc2)NC1=O [Example 48] (cyclo([Gly(octyl)][hTyr]TASIPPQKN[dP]P)) |
| 5.5 | 218 | 1200 | 644 | 3540 | CCCCCCCC[C@@H]1NC(=O)[C@@H]2CCCN2C(=O)[C@H]2CCCN2C(=O)[C@H](CN)NC(=O)[C@H](CCCCN)NC(=O)[C@H](CCC(N)=O)NC(=O)[C@@H]2CCCN2C(=O)[C@@H]2CCCN2C(=O)[C@H]([C@@H](C)CC)NC(=O)[C@H](CO)NC(=O)[C@H](C)NC(=O)[C@H]([C@@H](C)O)NC(=O)[C@H](CCC(=O)O)NC1=O [Example 2, Cyclo(-OctGly-Glu-Thr-Ala-Ser-Ile-Pro-Pro-Gln-Lys-Dap-^DPro-Pro-)] (cyclo([Gly(octyl)]ETASIPPQK[Dap][dP]P)) |
| 9.9 | 161 | 1590 | 237 | 2350 | CCCCCCCC[C@@H]1NC(=O)[C@@H]2CCCN2C(=O)[C@H]2CCCN2C(=O)[C@H](CCCC(N)=O)NC(=O)[C@H](CCCCN)NC(=O)[C@H](CCC(N)=O)NC(=O)[C@@H]2CCCN2C(=O)[C@@H]2CCCN2C(=O)[C@H]([C@@H](C)CC)NC(=O)[C@H](CO)NC(=O)[C@H](C)NC(=O)[C@H]([C@@H](C)O)NC(=O)[C@H](CCC(=O)O)NC1=O [Example 5, Cyclo(-OctGly-Glu-Thr-Ala-Ser-Ile-Pro-Pro-Gln-Lys-hGln-^DPro-Pro-)] (cyclo([Gly(octyl)]ETASIPPQK[Aad](NH2)[dP]P)) |
| 15 | 2080 | 31200 | 4013 | 60200 | C=CC[C@@H]1NC(=O)[C@H]([C@@H](C)O)NC(=O)[C@H](CCC(=O)O)NC(=O)[C@H](CCC(=O)N[C@@H](Cc2ccccc2)C(=O)O)NC(=O)[C@@H]2CCCN2C(=O)[C@H]2CCCN2C(=O)[C@H](Cc2ccc(O)cc2)NC(=O)[C@H](CCCCN)NC(=O)[C@H](CCC(N)=O)NC(=O)[C@@H]2CCCN2C(=O)[C@@H]2CCCN2C(=O)[C@H]([C@@H](C)CC)NC(=O)[C@H](CO)NC1=O [Example 17, Cyclo(-Glu(Phe)-Glu-Thr-AllylGly-Ser-Ile-Pro-Pro-Gln-Lys-Tyr-^DPro-Pro-)] (cyclo(E(Phe)ET[AllylGly]SIPPQKY[dP]P)) |
| 15.2 | >6579 | > 100000 | >6579 | > 100000 | CCCCCCCC[C@@H]1NC(=O)[C@H]2CCCN2C(=O)[C@H]2CCCN2C(=O)[C@H]([C@@H](C)O)NC(=O)[C@H](CCCCN)NC(=O)[C@H](CCC(N)=O)NC(=O)[C@@H]2CCCN2C(=O)[C@@H]2CCCN2C(=O)[C@H]([C@@H](C)CC)NC(=O)[C@H](CO)NC(=O)[C@H](C)NC(=O)[C@H]([C@@H](C)O)NC(=O)[C@H](CCC(=O)O)NC1=O [Example 12, Cyclo(-OctGly-Glu-Thr-Ala-Ser-Ile-Pro-Pro-GI n-Lys-Thr-^DPro-^DPro-)] (cyclo([Gly(octyl)]ETASIPPQKT[dP][dP])) |
| 15 | >6667 | > 100000 | >6667 | > 100000 | CC[C@H](C)[C@@H]1NC(=O)[C@H](CO)NC(=O)[C@H](C)NC(=O)[C@H]([C@@H](C)O)NC(=O)[C@H](CCC(=O)O)NC(=O)[C@H](CCCNC(=N)N)NC(=O)[C@@H]2CCCN2C(=O)[C@H]2CCCN2C(=O)[C@H]([C@@H](C)O)NC(=O)[C@H](CCCCN)NC(=O)[C@H](CCC(N)=O)NC(=O)[C@@H]2C[C@@H]3CCCC[C@@H]3N2C(=O)[C@@H]2CCCN2C1=O [Example 16, Cyclo(-Arg-Glu-Thr-Ala-Ser-Ile-Pro-Oic-Gln-Lys-Thr-^DPro-Pro-)] (cyclo(RETASIP[Oic]QKT[dP]P)) |
| 10.1 | 2119 | 21400 | >9901 | > 100000 | CCCCCCCC[C@@H]1NC(=O)[C@@H]2CCCN2C(=O)[C@H]2CCCN2C(=O)[C@H]([C@@H](C)O)NC(=O)[C@H](CCCCN)NC(=O)[C@H](CCC(N)=O)NC(=O)[C@@H]2CCCN2C(=O)[C@@H]2CCCN2C(=O)[C@H]([C@@H](C)CC)NC(=O)[C@H](CO)NC(=O)[C@H](C)NC(=O)[C@H]([C@@H](C)O)NC(=O)[C@H](Cc2ccccc2)NC1=O [Example 13, Cyclo(-OctGly-Phe-Thr-Ala-Ser-Ile-Pro-Pro-Gln-Lys-Thr-^DPro-Pro-)] (cyclo([Gly(octyl)]FTASIPPQKT[dP]P)) |
| 12 | >8333 | > 100000 | >8333 | > 100000 | CCCCCCCC[C@@H]1NC(=O)[C@H](CCCCN)NC(=O)[C@@H](CCCCN)NC(=O)[C@H]([C@@H](C)O)NC(=O)[C@H](CCCCN)NC(=O)[C@H](CCC(N)=O)NC(=O)[C@@H]2CCCN2C(=O)[C@@H]2CCCN2C(=O)[C@H]([C@@H](C)CC)NC(=O)[C@H](CO)NC(=O)[C@H](C)NC(=O)[C@H]([C@@H](C)O)NC(=O)[C@H](CCC(=O)O)NC1=O [Example 28, Cyclo(-OctGly-Glu-Thr-Ala-Ser-Ile-Pro-Pro-GI n-Lys-Thr-^DLys-Lys-)] (cyclo([Gly(octyl)]ETASIPPQKT[dK]K)) |
